Measurements taken from US5518737A, “Peroral drug delivery system” (priority 1991, dated 1996).
Structures can show the parent of a compound that is named as a salt. Where two headings read alike, the source gives them in different places.

What was measured:
[1] = Dissolution rate of propranolol hydrochloride by rotating disc method; assay type: physicochemical; settings: 34° C., 550 mOsm, μ=0.3
Description: Each experiment was repeated five times.

[2] = membranes incubated at pH 7.4 or pH 9.0 propranolol hydrochloride solutions prior to device preparation
Procedure: The thickness of the membranes was 150 μm. Solid propranolol hydrochloride (2 mg) was placed without or with pH-adjusting additives (sodium phosphate/disodium phosphate in different proportions, Tris buffer) (2 mg) on a cut piece of silicone membrane. Another silicone membrane was glued on the former so that the drug and, if present, adjuvant were encapsulated inside two membranes.
Propranolol release from the devices was studied in vitro at pH 7.4 in phosphate buffer from one side of the device in side-by-side diffusion cell. The exposed drug releasing surface was 0.7 cm^2. The released propranolol was analysed using reverse phase HPLC at 254 nm.

physchem = settings: buffer, pH 7.3, aqueous buffer
Procedure: Solubility of propranolol hydrochloride in buffer solutions at 34° C. was investigated by shaking propranolol hydrochloride suspension in the solvent. After equilibration, the saturated solutions were filtered and the concentration of propranolol in the filtrates was assayed by HPLC as described above. […] Each experiment was repeated five times.

[3] = Release of timolol from silicone microspheres (rotating bottle method); assay type: physicochemical; settings: for release of timolol from silicone microspheres after 1 hour: pH 7.4, 37° C., 100 mg microspheres
Procedure: In silicone microspheres, timolol maleate was used as a model drug and sodium phosphate and Tris buffer as release-controlling adjuvants. Spray-dried drug and adjuvants were either simply mixed as power mixtures or they were spray dried together. To prepare silicone microspheres, the drug (2-20 wt %) and, if present, pH-adjusting agent (0-10 wt %) were mixed with the silicone elastomer (an amine resistant Dow Corning X7-3012 elastomer), and the curing agent was added. One part of the curing agent is mixed in ten parts of the polymer. Vulcanization of the X7-3012 elastomers is based on a platinum catalyzed addition (hydrosilylation) reaction. Two grams of the drug-polymer mixture was dispersed in 35 grams of liquid paraffin using an overhead stirrer at 190 rpm and 22° C. The temperature was raised to 50° C. in 1 hour. After 3 hours, the heating was stopped, and the mixture gradually cooled back to 22° C. […] Microparticles were separated from paraffin by filtration, washed with n-hexane and dried at room temperature. The mean particle size of the microspheres was 150±50 μm (mean±SD) (FIG. 14) and the entrapment efficiency of timolol maleate was 60-75%. Release of timolol from the silicone microspheres was studied using the rotating bottle method (NF XIV) in pH 7.4 phosphate buffer at 37° C. The volume of dissolution medium was 3 ml and the amount of microspheres 100 mg. The release timolol was analysed using reverse phase HPLC at 294 nm.

| Compound | dissolution rate, pH 7.3 versus pH 9.4 [1] | dissolution rate ([1]; pH of dissolution medium raised from 1.6 to 7.3) | initial lag time before steady drug release [2] | rates of propranolol release, effect of osmotic pressure (138 mOsm to 950 mOsm at pH 7.4) | rates of propranolol release, effect of osmotic pressure (295 mOsm to 960 mOsm at pH=4.6) | release profile and rate of propranolol release, effect of ionic strength (ionic strength 0.15 to 0.3) | drug release rate, effect of the surrounding pH (pH 1.6, 4.6, 7.3, 9.4) | solubility (physchem) [mg/mL] | release of timolol from silicone microspheres after 1 hour ([3]; 2 wt % drug loading) [µg] | release relative to absence of the pH-adjusting agent ([3]; 2 wt % timolol, 1 wt % Tris) | effect on release rate of adding disodium phosphate ([3]; 2 wt % timolol, 1 wt % disodium phosphate) | release of timolol from silicone microspheres after 1 hour ([3]; 20 wt % drug loading) [µg] | release relative to absence of the pH-adjusting agent ([3]; 20 wt % timolol, 10 wt % Tris) | relationship between the release of timolol and the square root of the time elapsed ([3]; pH 7.4 phosphate buffer, 37° C.) | release of timolol after 1 hour ([3]; timolol and disodium phosphate spray dried together) [µg] |
| --- | --- | --- | --- | --- | --- | --- | --- | --- | --- | --- | --- | --- | --- | --- | --- |
| CC(C)NCC(O)COc1cccc2ccccc12 (stereo not drawn) [propranolol, propranolol hydrochloride] | equal | increased | possible to avoid the initial lag time | remained essentially constant | remained essentially constant | independent of the ionic strength of the dissolution medium | practically unaffected by the surrounding pH | 94 |  |  |  |  |  |  |  |
| CC(C)(C)NC[C@H](O)COc1nsnc1N1CCOCC1 [timolol, timolol maleate] |  |  |  |  |  |  |  |  | 27 | two times faster | did not affect the release rate | 520 | two times faster | linear relationship | 187 |
